What was measured:
[1] = biological target: T1, OATP1B3 (Homo sapiens, UniProt Q9NPD5); test: Inhibitory effect of seven drugs on OATP1B3-mediated E217βG uptake; format: cell-based; conditions: 50 μM or 50 μg/mL; N = 2
T1 construct: host or cells: HEK293
T1 sequence (Q9NPD5 1-702): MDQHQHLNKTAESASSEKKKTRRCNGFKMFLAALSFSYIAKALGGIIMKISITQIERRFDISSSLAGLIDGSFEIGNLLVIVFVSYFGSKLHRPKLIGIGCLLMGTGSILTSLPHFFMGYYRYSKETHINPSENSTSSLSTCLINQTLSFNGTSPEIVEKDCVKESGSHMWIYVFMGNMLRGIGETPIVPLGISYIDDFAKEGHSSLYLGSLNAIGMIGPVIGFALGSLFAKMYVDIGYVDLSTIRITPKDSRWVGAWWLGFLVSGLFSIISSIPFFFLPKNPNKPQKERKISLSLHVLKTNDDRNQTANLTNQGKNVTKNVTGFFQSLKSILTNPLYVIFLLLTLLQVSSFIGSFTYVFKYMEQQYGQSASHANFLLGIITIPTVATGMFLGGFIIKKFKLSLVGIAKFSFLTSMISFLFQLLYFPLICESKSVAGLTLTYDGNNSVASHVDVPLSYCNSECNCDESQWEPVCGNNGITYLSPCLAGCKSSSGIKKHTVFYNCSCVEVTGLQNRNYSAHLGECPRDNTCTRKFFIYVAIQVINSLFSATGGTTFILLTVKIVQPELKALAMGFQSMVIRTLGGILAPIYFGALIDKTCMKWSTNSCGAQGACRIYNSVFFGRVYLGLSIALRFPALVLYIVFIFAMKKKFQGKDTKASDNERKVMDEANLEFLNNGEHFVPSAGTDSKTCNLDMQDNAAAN
Method: (§1) Note: the peak area of probe substrate transported by MRP2, OAT3, OATP1B1 or OATP1B3 was determined by LC-MS method. Then, the relative uptake rate of probe substrate in the presence of seven drugs was calculated by using equation 7 or 11. When the relative uptake rate was decreased by more than 50%, indicating the potential inhibitory of drug on the transporter.

[2] = biological target: MRP2 (Homo sapiens, UniProt Q92887); test: Inhibitory effect of seven drugs on MRP2-mediated E217βG uptake (vesicles); format: biochemical; set-up: purchased GenoMembrane (Tokyo, Japan) Product No. 0001; conditions: 50 μM or 50 μg/mL; N = 2
Method: Briefly, 10 μL of vesicle membranes and 5 μL of Reagent G were mixed and pre-incubated with 10 μL of the compounds or Buffer A2 (used as no compound-treatment control [NC]) at 37°C for 5 min. […] The two mixtures were mixed before the incubation and then incubated for an additional 5 min. […]
Regarding the inhibition assay, the methods used to calculate the transported activity and UR were similar to those used for the substrate assay. However, please refer to the SLC inhibition assay for the equations for calculating the UR percentages relative to the NC and IC50 values of compounds on MRP2 activity and MRP2-mediated MPAG transport.
as §1

[3] = biological target: T2, OAT3 (Homo sapiens, UniProt Q8TCC7); test: Inhibitory effect of seven drugs on OAT3-mediated ES uptake; format: cell-based; set-up: host or cells: HEK293; conditions: 50 μM or 50 μg/mL; N = 2
T2 sequence (Q8TCC7 1-542): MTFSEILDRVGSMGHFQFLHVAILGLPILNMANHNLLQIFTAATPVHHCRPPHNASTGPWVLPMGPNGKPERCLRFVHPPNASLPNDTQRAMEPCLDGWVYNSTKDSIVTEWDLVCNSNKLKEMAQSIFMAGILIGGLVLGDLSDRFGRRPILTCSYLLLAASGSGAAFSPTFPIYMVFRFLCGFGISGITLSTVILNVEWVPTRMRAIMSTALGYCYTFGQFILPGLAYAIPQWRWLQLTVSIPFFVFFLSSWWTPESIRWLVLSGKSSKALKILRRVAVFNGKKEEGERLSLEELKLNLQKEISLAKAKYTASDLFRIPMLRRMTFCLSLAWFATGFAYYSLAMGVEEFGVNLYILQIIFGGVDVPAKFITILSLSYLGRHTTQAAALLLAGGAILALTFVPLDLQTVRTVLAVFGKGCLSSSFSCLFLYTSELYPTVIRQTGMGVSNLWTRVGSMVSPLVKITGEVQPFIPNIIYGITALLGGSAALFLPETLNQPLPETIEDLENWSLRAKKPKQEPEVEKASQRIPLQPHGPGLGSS
Method: as §1

[4] = biological target: T3, OATP1B1 (Homo sapiens, UniProt Q9Y6L6); test: Inhibitory effect of seven drugs on OATP1B1-mediated E217βG uptake; format: cell-based; conditions: 50 μM or 50 μg/mL; N = 2
T3 construct: host or cells: HEK293
T3 sequence (Q9Y6L6 1-691): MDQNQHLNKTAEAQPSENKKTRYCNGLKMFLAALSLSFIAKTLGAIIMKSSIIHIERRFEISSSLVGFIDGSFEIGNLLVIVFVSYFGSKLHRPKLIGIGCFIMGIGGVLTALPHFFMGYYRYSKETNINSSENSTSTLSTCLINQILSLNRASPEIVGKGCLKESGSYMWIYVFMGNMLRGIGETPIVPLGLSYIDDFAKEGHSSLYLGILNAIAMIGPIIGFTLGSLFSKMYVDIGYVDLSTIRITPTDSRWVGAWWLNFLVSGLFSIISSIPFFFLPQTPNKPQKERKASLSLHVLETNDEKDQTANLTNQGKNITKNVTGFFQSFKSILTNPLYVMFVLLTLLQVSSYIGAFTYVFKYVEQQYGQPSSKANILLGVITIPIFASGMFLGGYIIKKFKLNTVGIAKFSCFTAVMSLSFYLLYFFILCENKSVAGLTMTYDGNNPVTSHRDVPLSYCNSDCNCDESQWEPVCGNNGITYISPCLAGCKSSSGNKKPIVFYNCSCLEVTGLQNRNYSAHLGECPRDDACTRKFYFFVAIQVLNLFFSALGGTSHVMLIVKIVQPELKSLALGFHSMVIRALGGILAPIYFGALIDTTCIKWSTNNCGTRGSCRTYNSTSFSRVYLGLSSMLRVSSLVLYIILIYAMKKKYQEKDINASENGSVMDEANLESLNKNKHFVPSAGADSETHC
Method: as §1

[5] = biological target: T2, OAT3; test: Transporter substrate study using HEK293-OAT3 cells; conditions: for uptake ratio (UR) mediated by OAT3: 10 μM
[6] = cited from earlier work
[7] = biological target: T4, human OAT1 (Homo sapiens, UniProt Q4U2R8)
T4 sequence (Q4U2R8 1-563): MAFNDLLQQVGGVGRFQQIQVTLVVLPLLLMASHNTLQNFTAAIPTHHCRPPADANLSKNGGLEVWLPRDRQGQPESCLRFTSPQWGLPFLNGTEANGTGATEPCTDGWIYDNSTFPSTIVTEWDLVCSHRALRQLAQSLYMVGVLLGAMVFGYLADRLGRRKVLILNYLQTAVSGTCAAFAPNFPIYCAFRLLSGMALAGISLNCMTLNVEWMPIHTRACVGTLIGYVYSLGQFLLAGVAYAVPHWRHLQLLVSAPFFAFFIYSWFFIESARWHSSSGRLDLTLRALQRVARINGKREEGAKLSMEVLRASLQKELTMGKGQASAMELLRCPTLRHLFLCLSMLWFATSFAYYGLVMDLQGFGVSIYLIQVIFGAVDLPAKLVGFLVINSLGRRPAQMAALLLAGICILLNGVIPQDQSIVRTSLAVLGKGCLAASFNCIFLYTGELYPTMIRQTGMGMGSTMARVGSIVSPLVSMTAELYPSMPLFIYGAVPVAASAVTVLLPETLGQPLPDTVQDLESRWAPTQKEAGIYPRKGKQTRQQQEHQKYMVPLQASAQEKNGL

[8] = tested on: UGT; test: Human hepatocyte UGT induction study, conversion of MPA to MPAG; format: cell-based; conditions: for formation of MPAG, % of NC (Mean): 96 h treatment
Method: Cryopreserved human hepatocytes were recovered in a pre-warmed incubation medium, diluted to a viable cell density (∼0.7 × 10^6 cells/mL) using a plating medium, followed by the addition of 100 μL hepatocytes into each well of a collagen I-coated 96-well plate. The cell monolayer was formed after an overnight incubation period at 37°C under 5%CO2. The plating medium was then replaced with an incubation medium for further culture. On the second day, an incubation medium containing different concentrations of either compound, the inducer omeprazole (final concentration of 50 μM), or vehicle (0.1% [v/v] dimethyl sulfoxide [DMSO]). […] At the end of the incubation period, the medium was replaced with a substrate for UGT and MPA. Following a further incubation of 15 or 30 min at 37°C under 5% CO2, 100 μL of the reaction medium was transferred to 400 μL of ice-cold methanol containing internal standard (IS) to terminate the reaction. Finally, the supernatant was collected after centrifugation at 4,000 rpm for 10 min and analyzed for glucuronide formation using liquid chromatography-mass spectrometry (LC-MS).
The formation of glucuronide metabolites, as determined with LC-MS, was used to calculate the formation rate linked to enzyme activity according to Equation 1. Formation rate pmol/10^6 cells/min=amount of glucuronide metabolites formation pmol/number of cells 10^6 cells×incubation time min (1)
The percentage of enzyme activity relative to the NC (%) was determined using Equation 2. Relative enzyme activity % of NC=formation rate in the compound−treated group/that in NC×100 (2)

[9] = criterion UR ≥2.0 and inhibition ≥50%

Chain of MRP2 (Q92887 whole entry): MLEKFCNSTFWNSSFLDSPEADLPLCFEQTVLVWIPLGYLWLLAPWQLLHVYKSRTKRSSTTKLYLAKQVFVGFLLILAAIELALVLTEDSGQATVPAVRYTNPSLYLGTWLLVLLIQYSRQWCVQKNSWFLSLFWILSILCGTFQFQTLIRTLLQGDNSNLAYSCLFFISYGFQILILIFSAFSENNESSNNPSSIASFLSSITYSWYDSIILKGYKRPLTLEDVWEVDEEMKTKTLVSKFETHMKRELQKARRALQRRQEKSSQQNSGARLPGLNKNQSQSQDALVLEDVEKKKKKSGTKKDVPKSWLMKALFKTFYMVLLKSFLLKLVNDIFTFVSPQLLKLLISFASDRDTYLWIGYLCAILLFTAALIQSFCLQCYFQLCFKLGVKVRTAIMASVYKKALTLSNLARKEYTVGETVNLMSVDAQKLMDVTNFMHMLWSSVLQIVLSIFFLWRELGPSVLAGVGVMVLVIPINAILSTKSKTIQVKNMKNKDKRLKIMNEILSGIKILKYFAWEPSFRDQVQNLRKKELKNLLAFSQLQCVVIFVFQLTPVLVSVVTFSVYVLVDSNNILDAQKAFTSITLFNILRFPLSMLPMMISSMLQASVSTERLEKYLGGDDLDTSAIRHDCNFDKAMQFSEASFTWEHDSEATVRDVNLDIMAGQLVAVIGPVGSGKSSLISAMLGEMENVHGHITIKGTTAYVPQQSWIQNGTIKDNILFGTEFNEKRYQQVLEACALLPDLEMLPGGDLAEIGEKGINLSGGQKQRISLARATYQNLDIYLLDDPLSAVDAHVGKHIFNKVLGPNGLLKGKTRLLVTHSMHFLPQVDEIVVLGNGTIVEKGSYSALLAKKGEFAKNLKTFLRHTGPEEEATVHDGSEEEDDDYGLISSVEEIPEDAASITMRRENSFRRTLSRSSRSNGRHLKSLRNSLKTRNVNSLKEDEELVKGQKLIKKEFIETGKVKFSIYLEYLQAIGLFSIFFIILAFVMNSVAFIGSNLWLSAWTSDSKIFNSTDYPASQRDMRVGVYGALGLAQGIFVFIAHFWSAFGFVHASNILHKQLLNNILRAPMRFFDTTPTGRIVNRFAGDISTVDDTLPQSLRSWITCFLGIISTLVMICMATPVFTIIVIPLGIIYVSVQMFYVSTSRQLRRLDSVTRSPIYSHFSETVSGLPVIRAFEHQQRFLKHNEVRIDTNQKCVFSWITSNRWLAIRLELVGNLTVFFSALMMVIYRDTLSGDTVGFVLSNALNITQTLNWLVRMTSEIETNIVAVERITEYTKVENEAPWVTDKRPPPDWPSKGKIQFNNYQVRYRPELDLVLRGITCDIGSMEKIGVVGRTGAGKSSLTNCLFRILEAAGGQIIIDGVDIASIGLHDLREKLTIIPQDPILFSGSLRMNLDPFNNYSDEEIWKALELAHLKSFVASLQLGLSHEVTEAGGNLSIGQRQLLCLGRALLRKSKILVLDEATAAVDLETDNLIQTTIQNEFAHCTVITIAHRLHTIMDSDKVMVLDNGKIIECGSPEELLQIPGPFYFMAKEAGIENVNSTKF

Row | Compound | Relative net uptake rate (% of NC), Mean, OATP1B3-mediated E217βG uptake [1] | Relative net uptake rate (% of NC), Mean, MRP2-mediated E217βG uptake [2] | Relative net uptake rate (% of NC), Mean, OAT3-mediated ES uptake [3] | Relative net uptake rate (% of NC), Mean, OATP1B1-mediated E217βG uptake [4] | also measured
1 | CCCCC[C@H](O)/C=C/[C@H]1[C@H](O)CC(=O)[C@@H]1CCCCCCC(=O)O [Alprostadil, alprostadil] | 59.6 % of NC | 137 % of NC | 52.6 % of NC | 33.6 % of NC | 
2 | CCN1CCN(C(=O)N[C@@H](C(=O)N[C@@H]2C(=O)N3C(C(=O)O)=C(CSc4nnnn4C)CS[C@H]23)c2ccc(O)cc2)C(=O)C1=O [Cefoperzone, cefoperazone] | 67.5 % of NC | 104 % of NC |  | 168 % of NC | 
3 | C[C@]12CC[C@@H]3c4ccc(OS(=O)(=O)O)cc4CC[C@H]3[C@@H]1CCC2=O [ES, estrone-3-sulfate] |  |  |  |  | uptake ratio (UR) of probe substrate mediated by OAT3 ([5]; after probenecid treatment): 3.26; uptake ratio (UR) of probe substrate mediated by OAT3 ([5]; without inhibitor): 7.37
4 | COc1c(C)c2c(c(O)c1C/C=C(\C)CCC(=O)OCCN1CCOCC1)C(=O)OC2 [MMF, mycophenolate mofetil] |  |  |  |  | fraction of the absorbed drug eliminated in the urine ([6]; ref van Schaik et al., 2009): approximately 87%
5 | COc1c(C)c2c(c(O)c1C/C=C(\C)CCC(=O)O)C(=O)OC2 [MPA, mycophenolic acid] |  |  |  |  | exposure lower in the early phase after transplantation than in the stable period ([6]; similar dose of MMF, ref Shaw et al., 2003): 30%–50%
6 | COc1c(C)c2c(c(O[C@@H]3O[C@H](C(=O)O)[C@@H](O)[C@H](O)[C@H]3O)c1C/C=C(\C)CCC(=O)O)C(=O)OC2 [MPAG, 7-O-mycophenolic acid glucuronide] |  |  |  |  | uptake ratio (UR) mediated by OAT1 ([7]; 0.5, 1, and 10 μM): less than 2.0; substrate of OAT1 (in words) [7, 9]: not a substrate of OAT1; uptake ratio (UR) mediated by OAT3 ([5]; following incubation with probenecid): 1.19; uptake ratio (UR) mediated by OAT3 ([5]; without inhibitor): 2.47; substrate of OAT3 (in words) [5, 9]: weak substrate for OAT3
7 | C[C@@H](O)[C@H]1C(=O)N2C(C(=O)O)=C(S[C@@H]3CN[C@H](C(=O)N(C)C)C3)[C@H](C)[C@H]12 [Meropenem, meropenem] | 69.9 % of NC | 137 % of NC | 26.6 % of NC | 95.9 % of NC | 
8 | O=C(c1cc(Cc2n[nH]c(=O)c3ccccc23)ccc1F)N1CCN(C(=O)C2CC2)CC1 [Olaparib, olaparib] | 72.4 % of NC | 136 % of NC | 70.2 % of NC | 99.3 % of NC | 
9 | COc1ccnc(C[S+]([O-])c2nc3ccc(OC(F)F)cc3[nH]2)c1OC (stereo not shown) [Pantoprazole, pantoprazole] | 67.7 % of NC | 134 % of NC | 87.2 % of NC | 115 % of NC | 
10 | C[C@]12C=CC(=O)C=C1CC[C@@H]1[C@@H]2[C@@H](O)C[C@@]2(C)[C@H]1CC[C@]2(O)C(=O)CO [prednisolone] |  |  |  |  | formation of MPAG, % of NC (Mean) ([8]; 0.5 μM): 101 % of NC; formation of MPAG, % of NC (Mean) ([8]; 1 μM): 114 % of NC; formation of MPAG, % of NC (Mean) ([8]; 5 μM): 106 % of NC; formation of MPAG, % of NC (Mean) ([8]; 10 μM): 101 % of NC; formation of MPAG, % of NC (Mean) ([8]; 50 μM): 126 % of NC; formation of MPAG, % of NC (Mean) ([8]; 100 μM): 129 % of NC; change in MPAG formation from MPA (in words) ([8]; 96 h incubation of human hepatocytes): slight increase
11 | CCCN(CCC)S(=O)(=O)c1ccc(C(=O)O)cc1 [probenecid] |  |  |  |  | reduction of OAT3-mediated MPAG uptake ([5]; 10 μM MPAG): 90.8%; reduction of OAT3-mediated ES uptake ([5]; probe substrate ES): 69.4%
